Source: patent US12690590B2, “Phenyl compound and plant disease control method” (SUMITOMO CHEMICAL COMPANY, LIMITED, priority 2020, dated 2026)

What was measured:
Microsphaera diffusa = experiment: Test Example 10: test for controlling soybean powdery mildew, foliar spray after inoculation; format: in vivo; details: 200 ppm foliar spray 2 days after inoculation, soybeans (Kurosengoku)
Phytophthora infestans = format: in vivo; details: 200 ppm foliar spray, tomatoes (Patio), inoculated 1 day after spraying

## CCCCCSc1ccn(-c2ccc(Cl)cc2)n1 [IIA-53]
Microsphaera diffusa
  lesion area in the treated soybeans relative to the lesion area in the non-treated soybeans: ≤ 30%

## CCCS(=O)(=O)c1nc(-c2ccc(C(C)(C)C)cc2)cs1 [IIC-16]
Phytophthora infestans
  lesion area in the treated tomatoes relative to the lesion area in the non-treated tomatoes: ≤ 30%
